A melting point compilation (Tetko et al.; mined from patent text by program, amines drawn as free bases though some values may be those of a salt)

First: CC(c1ccccc1)c1ccc(N)c([N+](=O)[O-])c1 (stereo not drawn)
Second: CC(C)(c1ccccc1)c1ccc(N)c(S(=O)(=O)O)c1
The melting point of the first is lower: 96 to 98 °C for the first, 263 to 265 °C for the second.

Compared with COC(=O)C(=O)Nc1ccccc1C(C)(C)C, COC(=O)c1sc2cc(C(F)(F)F)ccc2c1NC(C)=O is higher in melting point: 61.7 to 63.6 °C for the first, 204 to 205 °C for the second.

CC(C)n1nc(-c2c(-c3ccccc3)nn3ccc(OCCC4CCCC4)cc23)ccc1=O and CN(CCc1cccc(O)c1)c1cnc(-c2ccccc2)c(-c2ccccc2)n1 cannot be ordered by melting point: 160 °C for the first, 158 to 161 °C for the second.

Compared with CNCCCNc1ccc2c(NC(=O)CC34CC5CC(CC(C5)C3)C4)c(C)ccc2n1, c1ccc(N2c3ccccc3C3CN(CC45CC6CC(CC(C6)C4)C5)CCC32)cc1 (single isomer, unassigned; (+)) is lower in melting point: 217 to 224 °C for the first, 117 to 119 °C for the second.

Compared with CC(C)=C(C[C@H](N)C(=O)O)C(=O)O, CCOC(=O)c1cc(C(=O)C(C)C)c(=O)[nH]c1C(=O)OCC is lower in melting point: 198 to 199 °C for the first, 116 to 118 °C for the second.

First: N#Cc1cnc(-c2c(Cl)cc(C(F)(F)F)cc2Cl)[nH]1
Second: CC(C)c1nn(-c2ccc(C(F)(F)F)cn2)cc1CCCOc1c(C#N)cccc1CC(=O)O
The melting point of the first is higher: 210 to 212 °C for the first, 144 to 145 °C for the second.

First: O=C(Nc1ccc(Br)cc1)Nn1cnc2c(O)cccc2c1=O
Second: O=C(Nc1cccc2c(O)cccc12)c1ccc(F)c([N+](=O)[O-])c1
The melting point of the first is higher: 276 to 278 °C for the first, 235 to 238 °C for the second.

First: CCOC(=O)N1CCC(C(=O)c2ccc(F)cc2)(c2ccccc2)CC1
Second: CC(C)OC(=O)CCC(=O)c1ccc(-c2ccccc2F)cc1
The melting point of the first is higher: 91.7 °C for the first, 65 to 66 °C for the second.

First: O=C(c1ccccc1)N1CC(=O)N2CCc3ccccc3C2C1 (stereo not drawn)
Second: O=C(C=Cc1ccccc1)CC(=O)c1ccccc1
The melting point of the first is higher: 162 to 163 °C for the first, 108 °C for the second.

First: Cc1ncnc(N)c1C=O
Second: CNc1ncnc(N2CCc3ccccc32)n1
The melting point of the first is lower: 158 to 160 °C for the first, 185 to 187 °C for the second.

First: CC(C)(C)c1ccc([PH](=O)c2ccc(C(C)(C)C)cc2)cc1
Second: CC(CF)(CF)C1=NC(c2ccc(C(C)(C)C)cc2)CO1 (stereo not drawn)
The melting point of the first is higher: 142 °C for the first, 62 to 63 °C for the second.

First: Cc1c(Br)ccc(S(C)(=O)=O)c1S(C)(=O)=O
Second: COC(=O)c1cc(C)sc1S(N)(=O)=O
The melting point of the first is higher: 169 to 171 °C for the first, 137 to 138 °C for the second.

Compared with CSc1nc(-c2ccc(S(C)(=O)=O)cc2)n(-c2ccc(C(C)C)cc2)c(=O)c1C#N, CC(C)c1ccc(N(Cc2ccc(N(C)C)cc2)C(=O)C2CC(=O)Nc3ccccc32)cc1 (stereo not drawn) is lower in melting point: 211 to 212 °C for the first, 170 °C for the second.

First: O=C1NC(=S)SC1=Cc1ccc(OCc2ccccc2)cc1
Second: Oc1ccc(OCc2ccccc2)c(F)c1
The melting point of the first is higher: over 225 °C for the first, 80 to 82 °C for the second.

Going from CC(C)OC(=O)C(=C1SC=CS1)c1ccc(F)cc1 to CCn1c(Oc2ccc(F)cc2)nnc1[C@@H](C)N(C)S(=O)(=O)c1ccc(Cl)c(Cl)c1, the melting point rises from 86 °C to 126 °C.

First: OCc1cnc(-c2cccs2)s1
Second: OCc1ccc2c(Br)cccc2c1
The melting point of the first is higher: 89 to 90 °C for the first, 76 to 77 °C for the second.

Compared with N#CC1CN1C(=O)C1(c2ccc(Cl)cc2)CCCC1 (stereo not drawn), CC(C)N1CCc2ccc(C(=O)CCC(=O)N3CCC(c4ccc(Cl)cc4)CC3)cc2CC1 is higher in melting point: 80 to 82 °C for the first, 139 to 140 °C for the second.

Compared with CCc1nc(C)c2nnc3ccc(F)cc3n12, CCC(COC)n1cnc2c(Nc3ccc(C(F)(F)F)cc3Br)nc(C)nc21 (stereo not drawn) is lower in melting point: 187 to 190 °C for the first, 123 to 124 °C for the second.

First: S=C1CN=C(c2ccccn2)c2cc(I)ccc2N1
Second: Cc1ncc(C#N)c(Nc2cccc3[nH]ccc23)c1I
The melting point of the first is higher: 242 °C for the first, 192 to 194 °C for the second.

First: O=C1NCN(c2ccccc2)C12CCN(C1CCC(c3ccc(F)cc3)(c3ccc(F)cc3)CC1)CC2
Second: O=C1NCN(c2ccc(Cl)cc2)C12CCN(Cc1ccnc(-c3ccc(Cl)cc3)c1)CC2
The melting point of the first is higher: 249 to 253 °C for the first, 223 to 225 °C for the second.

Compared with CCCCCCCCOc1ccc(-c2ncc(OC(=O)[C@@H](Cl)[C@@H](C)CC)cn2)c(F)c1F, CC(C)(C)COC(=O)Oc1cc(Cl)nnc1-c1ccc(Br)cc1 is higher in melting point: 66.2 °C for the first, 114 to 116 °C for the second.

Compared with CC1CC(C)CN(S(=O)(=O)c2ccc(Cl)c(C(=O)Cl)c2)C1 (stereo not drawn), NC(=O)c1cccc(C(N)=O)c1[N+](=O)[O-] is higher in melting point: 164 to 166 °C for the first, 283 to 285 °C for the second.

Compared with COc1ccc(C=Cc2cc(F)c(OC)c(OC)c2)cc1O, COc1ccc(Nc2nc(N)nc3c(OC)cccc23)c(C)c1 is higher in melting point: 86 to 87 °C for the first, 185 to 187 °C for the second.

First: CC(=O)OCC(C)(Sc1cc2ccccc2[nH]1)c1ccccc1 (stereo not drawn)
Second: O=C(Oc1ccccc1OC(=O)c1ccccc1)c1ccccc1
The melting point of the first is higher: 105 to 106 °C for the first, 75 to 77 °C for the second.

Going from CC(=O)c1ccncc1OC1SCC(O)C(O)C1O (stereo not drawn) to COC(=O)C(C#N)=C(N)c1c(-c2ccccc2)noc1N, the melting point rises from 163 °C to 256 °C.

First: CC1=C(c2ccc(O)cc2)C(=O)c2ccc(O)cc21
Second: CCCCc1cccc(=O)n1Cc1ccc(-c2ccccc2-c2nnn[nH]2)cc1
The melting point of the first is higher: 138 to 146 °C for the first, 105 °C for the second.

First: CC(C(=O)c1ccc(Br)cc1)n1ncn(-c2ccc(N3CCN(c4ccc(O[Si](C)(C)C(C)(C)C)cc4)CC3)cc2)c1=O (stereo not drawn)
Second: CCOC(=O)CCCCC1CC(n2c3ccccc3c3ccccc32)c2ccccc2N1C(=O)c1ccc(OC)c(OC)c1 (stereo not drawn)
The melting point of the first is lower: 178 °C for the first, 195 to 196 °C for the second.

First: CC(C)(C)C(=O)C(C(c1ccc(Cl)cc1)n1cncn1)n1cncn1 (stereo not drawn)
Second: CCC1(C(=O)C(C(O)C(Cl)(Cl)Cl)n2cncn2)CCCC1 (stereo not drawn)
The melting point of the first is lower: 157 to 161 °C for the first, 194 to 196 °C for the second.

Compared with CC(C)(C)OC(=O)COC1=CC(=NS(=O)(=O)c2cccs2)c2ccccc2C1=O, COc1ccccc1-c1ccc(C[C@H](NC(=O)c2c(Cl)cccc2Cl)C(=O)O)cc1C(C)=O is lower in melting point: 153 to 155 °C for the first, 87 to 89 °C for the second.

First: COc1ccc2c(c1)SCCC2=O
Second: CCCc1cc2c(c3ccc(OC)cc13)OCc1cc(OC)ccc1-2
The melting point of the first is lower: 49 to 51 °C for the first, 88 to 90 °C for the second.

Compared with CNCC1Oc2cc(F)cc(-c3ccccc3Cl)c2O1 (stereo not drawn), O=C1Nc2ccc(F)cc2C1CCCCN1CCN(c2cc(Cl)cc3c2OCCO3)CC1 (stereo not drawn) is higher in melting point: 132 to 134 °C for the first, 146 to 148 °C for the second.

First: CCCCCCCCCCCCCCCNC(=O)OCCOCCOCCOC(=O)NCc1ccccn1
Second: CCCCc1nc2c(N)nc3ccccc3c2n1CCCC(=O)c1ccccc1
The melting point of the first is lower: 58 to 62 °C for the first, 178 to 180 °C for the second.

Compared with Cc1c(-c2c(F)cc(Cl)c(=O)n2C)nn(C)c1C#N, COC(=S)NN=C1C(=O)Nc2ccc(C3=NNC(=O)SC3C)cc21 (stereo not drawn) is higher in melting point: 190 to 191 °C for the first, 245 °C for the second.

First: O=S(=O)(NCCO)c1ccc(Nc2nc(OCC3CCCCC3)c3nc[nH]c3n2)cc1
Second: Nc1sc2c(c1C(=O)c1ccccc1)CCN(CCc1ccc([N+](=O)[O-])cc1)C2
The melting point of the first is higher: 158 to 160 °C for the first, 89 to 91 °C for the second.

First: O=[N+]([O-])c1ccc(N2CCN(Cc3ccccc3)S2(=O)=O)cc1
Second: NC(=O)CCSC(SCCC(=O)O)c1cccc(SCc2ccc3ccc(Cl)cc3n2)c1 (stereo not drawn)
The melting point of the first is higher: 164 to 165 °C for the first, 141 to 142 °C for the second.

First: CC1(C)CC2(CC(C)(C)N1)OC1(CCCCCCCCCCC1)NC2=O
Second: CC(=O)Nc1cc(N2CCCCC2)nc(=N)n1O
The melting point of the first is lower: 97 °C for the first, 204 to 205 °C for the second.

In the case of CCCN1C(=O)c2cccnc2NS1(=O)=O, the melting point is reported as 208 to 210 °C.
